The source of these data is patent US20260274833A1 (NiKang Therapeutics, Inc., priority 2022, published 2026).

The assay concerns the target T1, CDK2 (Homo sapiens, UniProt P24941).
T1 construct: endogenous in cells; host or cells: OVCAR3 cells
As to the kind of experiment: Phospho-RB measurement in OVCAR3 cells (HTRF phospho-RB cellular kit). Conditions: inhibition of RB phosphorylation at S807/811 (HTRF, TR-FRET ratio 665/620), 24 h compound treatment, 0.3 to 10,000 nM. It counts as cell-based. The method in brief: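 IC50 came from a four-parameter logistic fit of the DMSO-normalized TR-FRET ratio (665/620 nm). That ratio reflects RB phosphorylation at S807/811, read with an HTRF antibody pair 4 h after adding lysate at room temperature.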
Background: In TR-FRET formats the signal depends on donor and acceptor labels being close together.

One may read the IC50 as the concentration that gives 50% inhibition. For `CS(=O)(=O)[C@H]1CC[C@H](Nc2nccc(-c3sc(N4C5CCC4CC(F)(F)C5)nc3-c3cccc(NS(=O)(=O)N4CCc5ccc(C(F)(F)F)cc54)c3F)n2)CC1` [Example 298, N-(3-(2-(3,3-difluoro-8-azabicyclo-[3.2.1]octan-8-yl)-5-(2-(((1r,4r)-4-(methylsulfonyl)cyclohexyl)amino)-pyrimidin-4-yl)thiazol-4-yl)-2-fluoro-phenyl)-6-(trifluoromethyl)-indoline-1-sulfonamide], the IC50 came out at 130 nM.

Consider `CC(C)(C)c1nc(-c2cccc(NS(=O)(=O)N3CCn4c(nnc4C(F)(F)F)C3)c2F)c(-c2ccnc(NC3CCN(S(C)(=O)=O)CC3)n2)s1` [Example 94, N-(3-(2-(tert-butyl)-5-(2-((1-(methylsulfonyl)-piperidin-4-yl)amino)-pyrimidin-4-yl)thiazol-4-yl)-2-fluoro-phenyl)-3-(trifluoromethyl)-5,6-dihydro-[1,2,4]triazolo [4,3-a]pyrazine-7(8H)-sulfonamide], for which the concentration for half-maximal inhibition (IC50) was 5940 nM.

As for `CC(C)Oc1cccc2c1CN(S(=O)(=O)Nc1cccc(-c3nc(C(C)(C)C)sc3-c3ccnc(NC4CC5(C4)CS(=O)(=O)C5)n3)c1F)C2` [Example 226, N-(3-(2-(tert-butyl)-5-(2-((2,2-dioxido-2-thiaspiro[3.3]heptan-6-yl)amino)-pyrimidin-4-yl)thiazol-4-yl)~2~fluoro-phenyl)-4-isopropoxyiso-indoline-2-sulfonamide], the IC50 was found to be 527 nM. On to `CC(C)(C)c1nc(-c2cccc(NS(=O)(=O)N3CCNc4ccccc4C3)c2F)c(-c2ccnc(NC3CCN(S(C)(=O)=O)CC3)n2)s1` [Example 102, N-(3-(2-(tert-butyl)-5-(2-((1-(methylsulfonyl)piperidin-4-yl)amino)-pyrimidin-4-yl)thiazol-4-yl)-2-fluorophenyl)-1,2,3,5-tetrahydro-4H-benzo[e] [1,4]diazepine-4-sulfonamide], for which the concentration for half-maximal inhibition (IC50) came to 281 nM. With `CN(C)c1ccc2c(c1)N(S(=O)(=O)Nc1cccc(-c3nc(C45CC(C4)C5)sc3-c3ccnc(NC4CC5(C4)CS(=O)(=O)C5)n3)c1F)CC2` [Example 22, N-(3-(2-(bicyclo [1.1.1]pentan-1-yl)-5-(2-((2,2-dioxido-2-thiaspiro [3.3]heptan-6-yl)amino)-pyrimidin-4-yl)thiazol-4-yl)-2-fluorophenyl)-6-(dimethylamino)-indoline-1-sulfonamide], the IC50 came out at 477 nM. In the case of `CC1c2ccccc2CN1S(=O)(=O)Nc1cccc(-c2nc(C(C)(C)C)sc2-c2ccnc(NC3CCN(S(C)(=O)=O)CC3)n2)c1F` (stereo not shown) [Example 109, N-(3-(2-(tert-butyl)-5-(2-((1-(methylsulfonyl)-piperidin-4-yl)amino)-pyrimidin-4-yl)thiazol-4-yl)-2-fluoro-phenyl)-1-methylisoindoline-2-sulfonamide], the half-maximal inhibitory concentration (IC50) is 210 nM. Take `CS(=O)(=O)[C@H]1CC[C@H](Nc2nccc(-c3sc(C4(C(F)(F)F)CC4)nc3-c3cccc(NS(=O)(=O)N4CCc5ccc(C(F)(F)F)cc54)c3F)n2)CC1` [Example 282, N-(2-fluoro-3-(5-(2-(((1r,4r)-4-(methylsulfonyl)cyclohexyl)amino)pyrimidin-4-yl)-2-(1-(trifluoromethyl)-cyclopropyl)thiazol-4-yl)phenyl)-6-(trifluoromethyl) indoline-1-sulfonamide]: the half-inhibitory concentration (IC50) worked out at 357 nM.

With `CN(C1CC1)S(=O)(=O)Nc1cccc(-c2nc(C(C)(C)C)sc2-c2ccnc(NC3CCN(S(=O)(=O)N4CCNCC4)CC3)n2)c1F` [Example 108, N-(3-(2-(tert-butyl)-5-(2-((1-(piperazin-1-yl-sulfonyl)piperidin-4-yl)amino)-pyrimidin-4-yl)thiazol-4-yl)-2-fluoro-phenyl)(N-methyl-N-cyclopro-pylamine)-sulfonamide], the concentration for half-maximal inhibition (IC50) came out at 2070 nM.

On to `CC(C)(C)OC(=O)N1CCN(c2ccc(Nc3nccc(-c4sc(C(C)(C)C)nc4-c4cccc(NS(=O)(=O)N5CCc6ccc(C#N)cc65)c4F)n3)cc2)CC1` [Example 235, tert-butyl 4-(4-((4-(2-(tert-butyl)-4-(3-((6-cyanoindoline)-1-sulfonamido)-2-fluorophenyl)thiazol-5-yl)pyrimidin-2-yl)amino)phenyl) piperazine-1-carboxylate], for which the IC50 worked out at 3390 nM. With `CC(C)(C)c1nc(-c2cccc(NS(=O)(=O)N3CCc4ccccc4C3)c2F)c(-c2ccnc(NC3CCN(S(C)(=O)=O)CC3)n2)s1` [Example 74, N-(3-(2-(tert-butyl)-5-(2-((1-(methylsulfonyl)-piperidin-4-yl)amino)-pyrimidin-4-yl)thiazol-4-yl)-2-fluoro-phenyl)-3,4-dihydro-isoquinoline-2(1H)-sulfonamide] the figure was 180 nM.

Consider `CC(C)(C)c1nc(-c2cccc(NS(=O)(=O)N3Cc4cccc(Oc5ccccc5C#N)c4C3)c2F)c(-c2ccnc(NC3CC4(C3)CS(=O)(=O)C4)n2)s1` [Example 219, N-(3-(2-(tert-butyl)-5-(2-((2,2-dioxido-2-thiaspiro[3.3]heptan-6-yl)amino)-pyrimidin-4-yl)thiazol-4-yl)-2-fluorophenyl)-4-(2-cyanophenoxy)-isoindoline-2-sulfonamide], for which the half-inhibitory concentration (IC50) worked out at 583 nM. In the case of `CC(C)(C)c1nc(-c2cccc(NS(=O)(=O)N3CCC4(CC4)C3)c2F)c(-c2ccnc(NC3CCN(S(=O)(=O)N4CCNCC4)CC3)n2)s1` [Example 175, N-(3-(2-(tert-butyl)-5-(2-((1-(piperazin-1-ylsulfonyl)piperidin-4-yl)amino)-pyrimidin-4-yl)thiazol-4-yl)-2-fluoro-phenyl)-5-azaspiro [2.4]heptane-5-sulfonamide], the concentration for half-maximal inhibition (IC50) came out at 943 nM. For `N#Cc1ccc2c(c1)N(S(=O)(=O)Nc1cccc(-c3nc(C45CC(C4)C5)sc3-c3ccnc(N[C@H]4C[C@@H]5CS(=O)(=O)C[C@@H]5C4)n3)c1F)CC2` [Example 59, N-(3-(2-(bicyclo [1.1.1]pentan-1-yl)-5-(2-(((3aR,5s,6aS)-2,2-dioxidohexahydro-1H-cyclopenta[c]thiophen-5-yl)amino)-pyrimidin-4-yl)thiazol-4-yl)-2-fluorophenyl)-6-cyanoindoline-1-sulfonamide] the value was 53.3 nM. Regarding `CC(C)(C)c1nc(-c2cccc(NS(=O)(=O)N3CCc4c(C#N)cccc43)c2F)c(-c2ccnc(NC3CCN(S(C)(=O)=O)CC3)n2)s1` [Example 104, N-(3-(2-(tert-butyl)-5-(2-((1-(methylsulfonyl)piperidin-4-yl)amino)-pyrimidin-4-yl)thiazol-4-yl)-2-fluorophenyl)-4-cyanoindoline-1-sulfonamide], the IC50 was determined as 82 nM. With `CS(=O)(=O)[C@H]1CC[C@H](Nc2nccc(-c3sc(C45CC(C(F)(F)F)(C4)C5)nc3-c3cccc(NS(=O)(=O)N4CCc5ccc(C#N)cc54)c3F)n2)CC1` [Example 56, 6-cyano-N-(2-fluoro-3-(5-(2-(((1r,4r)-4-(methylsulfonyl)cyclohexyl)amino)-pyrimidin-4-yl)-2-(3-(trifluoromethyl)-bicyclo[1.1.1]-pentan-1-yl)thiazol-4-yl)phenyl)indoline-1-sulfonamide] the figure was 270 nM; with `CC(C)(C)c1nc(-c2cccc(NS(=O)(=O)N3CCc4ccc(C(C)(C)O)cc43)c2F)c(-c2ccnc(NC3CC4(C3)CS(=O)(=O)C4)n2)s1` [Example 257, N-(3-(2-(tert-butyl)-5-(2-((2,2-dioxido-2-thiaspiro[3.3]heptan-6-yl)amino)-pyrimidin-4-yl)thiazol-4-yl)-2-fluoro-phenyl)-6-(2-hydroxypropan-2-yl)indoline-1-sulfonamide], 2960 nM.
